Test results taken from patent publication US4229573A, “7α-Methoxycephalosporin derivatives” (Asahi Kasei Kogyo Kabushiki Kaisha, priority 1977, dated 1980).
Converted amounts (≈) assume the structure as drawn. Where two headings read alike, the source gives them in different places.

What was measured:
Assay in all cases: Minimum inhibitory concentration (MIC) against bacteria
Assay type in all cases: cell-based
[1] = system: Citrobacter freundii GN 346; settings: GN346
Excerpt: (§1) In an antimicrobial spectrum, a minimum inhibitory concentration (MIC) against a bacterium is expressed in terms of μg/ml.

[2] = system: Enterobacter cloacae GN 336; settings: GN336
Excerpt: as §1

[3] = system: Escherichia coli, 0205
Excerpt: as §1

[4] = system: Escherichia coli, NIHJ
Excerpt: as §1

[5] = system: Klebsiella pheumoniae, ATCC 10031
Excerpt: as §1

[6] = system: Proteus mirabilis
Excerpt: as §1

[7] = system: Proteus morganii 0239
Excerpt: as §1

[8] = system: Proteus rettgeri, ACR
Excerpt: as §1

[9] = system: Salmonella enteritidis gaertner
Excerpt: as §1

[10] = system: Staphylococcus aureus, ATCC 6538 P
Excerpt: as §1

[11] = system: Staphylococcus aureus, ATCC MS 27
Excerpt: as §1

[12] = Citrobacter freundii GN 346, read-out: MIC
[13] = Enterobacter cloacae GN 336, read-out: MIC
[14] = ATCC10031, Klebsiella pheumoniae, ATCC 10031, read-out: MIC
[15] = Morganella morganii, Proteus morganii 0239, read-out: MIC
[16] = Providencia rettgeri, Proteus rettgeri, ACR, read-out: MIC
[17] = Salmonella enterica, Salmonella enteritidis gaertner, read-out: MIC
[18] = ATCC6538, ATCC 6538 P, read-out: MIC
[19] = ATCCMS27, ATCC MS 27, read-out: MIC

SMILES	MIC [1, 12]	MIC [2, 13]	MIC ([3]; read-out: MIC)	MIC ([4]; read-out: MIC)	MIC [5, 14]	MIC ([6]; read-out: MIC)	MIC [7, 15]	MIC [8, 16]	MIC [9, 17]	MIC [10, 18]	MIC [11, 19]	MIC ([1]; Citrobacter freundii)	MIC ([2]; Enterobacter cloacae)	MIC [6]	other results
CC(=O)OCC1=C(C(=O)O)N2C(=O)[C@@H](NC(=O)Cc3cccs3)[C@H]2SC1 [Cephalothin, 7-(2-Thienylacetamido)-3-acetoxymethyl-3-cephem-4-carboxylic acid]			> 100 µg/mL	6.3 µg/mL (≈ 15.9 µM)								> 100 µg/mL	> 100 µg/mL	6.3 µg/mL (≈ 15.9 µM)	MIC ([5]; Klebsiella, ATCC10031): 0.8 µg/mL (≈ 2.02 µM); MIC ([7]; Morganella morganii, 0239): > 100 µg/mL; MIC ([8]; Providencia rettgeri): > 100 µg/mL; MIC ([9]; Salmonella enterica, ENTERITIDIS): 1.6 µg/mL (≈ 4.04 µM); MIC ([10]; ATCC6538): ≤ 0.2 µg/mL; MIC ([11]; ATCCMS27): 0.4 µg/mL (≈ 1.01 µM)
CO[C@@]1(NC(=O)C[S+]([O-])c2cccs2)C(=O)N2C(C(=O)O)=C(CSc3nnnn3C)CS[C@@H]21 (stereo partly drawn) [Example 21, 7β-(2-Thienylsulfinylacetamido)-7α-methoxy-3-(1-methyl-1H-tetrazol-5-ylthiomethyl)-3-cephem-4-carboxylic acid]												100 µg/mL (≈ 188 µM)	25 µg/mL (≈ 47.1 µM)	0.8 µg/mL (≈ 1.51 µM)	MIC [3]: 3.1 µg/mL (≈ 5.84 µM); MIC [4]: 1.6 µg/mL (≈ 3.02 µM); MIC ([5]; Klebsiella pheumoniae, ATCC 10031): ≤ 0.2 µg/mL; MIC ([7]; Proteus morganii 0239): 12.5 µg/mL (≈ 23.6 µM); MIC ([8]; Proteus rettgeri, ACR): 6.3 µg/mL (≈ 11.9 µM); MIC ([9]; Salmonella enteritidis gaertner): ≤ 0.2 µg/mL; MIC ([10]; ATCC 6538 P): 0.8 µg/mL (≈ 1.51 µM); MIC ([11]; ATCC MS 27): 0.8 µg/mL (≈ 1.51 µM)
CO[C@@]1(NC(=O)C[S+]([O-])c2cccs2)C(=O)N2C(C(=O)[O-])=C(CSc3nnnn3C)CS[C@@H]21.[Na+] (stereo partly drawn) [Example 23, sodium 7β-(2-thienylsulfinylacetamido)-7α-methoxy-3-(1-methyl-1H-tetrazol-5-ylthiomethyl)-3-cephem-4-carboxylate]															MIC ([3]; text of Example 23 (sodium salt)): 3.1 µg/mL

Second part, led by results:

MIC [1, 12]	MIC [2, 13]	MIC ([3]; read-out: MIC)	MIC ([4]; read-out: MIC)	MIC [5, 14]	MIC ([6]; read-out: MIC)	MIC [7, 15]	MIC [8, 16]	MIC [9, 17]	MIC [10, 18]	MIC [11, 19]	SMILES	MIC ([1]; Citrobacter freundii)	MIC ([2]; Enterobacter cloacae)	MIC [6]	other results
> 100 µg/mL	100 µg/mL (≈ 200 µM)	25 µg/mL (≈ 49.9 µM)	0.8 µg/mL (≈ 1.6 µM)	≤ 0.2 µg/mL	0.8 µg/mL (≈ 1.6 µM)	> 100 µg/mL	25 µg/mL (≈ 49.9 µM)	≤ 0.2 µg/mL	≤ 0.2 µg/mL	0.4 µg/mL (≈ 0.799 µM)	Cn1nnnc1SCC1=C(C(=O)O)N2C(=O)C(NC(=O)C[S+]([O-])c3cccs3)[C@H]2SC1 (stereo partly drawn) [A, 7-(2-Thienylsulfinylacetamido)-3-(1-methyl-1H-tetrazol-5-ylthiomethyl)-3-cephem-4-carboxylic acid]				
> 100 µg/mL	> 100 µg/mL	12.5 µg/mL (≈ 27.5 µM)	1.6 µg/mL (≈ 3.52 µM)	1.6 µg/mL (≈ 3.52 µM)	3.1 µg/mL (≈ 6.82 µM)	> 100 µg/mL	> 100 µg/mL	1.6 µg/mL (≈ 3.52 µM)	≤ 0.2 µg/mL	0.8 µg/mL (≈ 1.76 µM)	Cc1nnc(SCC2=C(C(=O)O)N3C(=O)[C@@H](NC(=O)Cn4cnnn4)[C@H]3SC2)s1 [Cefazolin, 7-(1H-Tetrazol-1-ylacetamido)-3-(5-methyl-1,3,4-thiadiazol-2-ylthiomethyl)-3-cephem-4-carboxylic acid]				
